# Experimental data reported in US8791132B2, “Compounds and methods for treatment of hypertension” (Medivation Technologies, Inc., priority 2011, dated 2014).
# Legend:
# [1] = Solubility in MeOH (chiral preparative HPLC data); format: physicochemical; details: sample for chiral preparative HPLC
# Protocol: For chiral separations, samples were dissolved in MeOH and EtOH according to the solubility of sample and filtered through 0.22μ. PTFE filters. The columns used were […]-AD; 20*250 mm, 10μ and […]-ODH; 20*250 mm, 5μ. A flow rate of 12 mL/min-17 mL/min was used according to the resolution. Alkanes such as n-Pentane, Hexane and Heptane (40%-95%) and alcohols such as EtOH, Isopropyl alcohol and t-Butanol (5%-60%) were used as mobile phase. In some cases alcohol combinations i.e. (EtOH+MeOH), (EtOH+IPA), (IPA+MeOH), (t-Butanol+MeOH), (t-Butanol+EtOH) were used instead of a single alcohol. Diethyl amine (up to 0.3%) was used as modifier in the mobile phase.
# Column: Chiralcel OD-H. Column ID: 20*250 mm, 5μ. Mobile Phase:Hexane: (EtOH:MeOH 80:20)−95:5. Flow rate: 15 mL/min. Solubility: 30 mg/mL in MeOH.
# Column: Chiral PAK-AD-H. Column ID: 20*250 mm, 5μ. Mobile Phase:Hexane (0.2% diethylamine):Isopropanol−93:7. Flow rate: 15 mL/min. Solubility: 40 mg/mL in MeOH.
# [2] = biological target: T1, human recombinant adrenergic α2B receptor (Homo sapiens, UniProt P18089); assay: Radioligand binding, adrenergic α2B ([3H]Rauwolscine); details: compound at 0.03 μM; [3H]Rauwolscine; repeat datapoints each shown; 0.03 µM
# T1 construct: expressed in transfected cells; host or cells: CHO-K1
# T1 sequence (P18089 1-450): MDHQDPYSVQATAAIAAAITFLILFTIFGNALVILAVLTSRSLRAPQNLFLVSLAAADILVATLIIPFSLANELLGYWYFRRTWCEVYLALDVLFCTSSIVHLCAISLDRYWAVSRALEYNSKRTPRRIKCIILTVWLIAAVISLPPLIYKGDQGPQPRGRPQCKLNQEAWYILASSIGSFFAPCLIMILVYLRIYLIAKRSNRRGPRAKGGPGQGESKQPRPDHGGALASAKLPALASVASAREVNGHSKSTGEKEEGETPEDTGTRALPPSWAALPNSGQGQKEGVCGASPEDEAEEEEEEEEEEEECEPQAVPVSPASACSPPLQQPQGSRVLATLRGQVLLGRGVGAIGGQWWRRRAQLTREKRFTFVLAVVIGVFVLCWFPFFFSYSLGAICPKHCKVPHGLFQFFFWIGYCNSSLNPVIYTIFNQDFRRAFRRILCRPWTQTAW
# Outline: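 Receptor expressed in CHO-K1 cells, assayed in 50 mM Tris-HCl pH 7.4 with 12.5 mM MgCl2, 1 mM EDTA and 0.2% BSA. Compounds were incubated with 2.5 nM [3H]Rauwolscine for 60 min at 25° C; 10 μM Prazosin defined non-specific binding. Filter counting gave percent inhibition of specific binding.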
# [3] = biological target: T2, human recombinant adrenergic α2A receptor (Homo sapiens, UniProt P08913); assay: Radioligand binding, adrenergic α2A ([3H]MK-912); details: compound at 0.1 μM; [3H]MK-912; repeat datapoints each shown; 0.1 µM
# T2 construct: expressed in transfected cells; host or cells: insect Sf9 cells
# T2 sequence (P08913 1-465): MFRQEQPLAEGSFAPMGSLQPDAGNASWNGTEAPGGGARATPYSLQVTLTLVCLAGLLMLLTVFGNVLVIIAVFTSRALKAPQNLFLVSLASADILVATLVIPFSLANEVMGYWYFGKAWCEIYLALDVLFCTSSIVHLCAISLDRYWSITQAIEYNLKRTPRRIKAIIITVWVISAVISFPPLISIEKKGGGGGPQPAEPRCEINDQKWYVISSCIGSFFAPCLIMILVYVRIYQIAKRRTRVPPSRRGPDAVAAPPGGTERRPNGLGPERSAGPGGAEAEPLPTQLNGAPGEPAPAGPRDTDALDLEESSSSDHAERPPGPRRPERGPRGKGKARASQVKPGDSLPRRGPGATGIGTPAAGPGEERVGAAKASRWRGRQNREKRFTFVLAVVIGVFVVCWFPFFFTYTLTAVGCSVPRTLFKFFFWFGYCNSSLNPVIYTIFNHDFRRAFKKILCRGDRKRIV
# Outline: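 In 50 mM Tris-HCl (pH 7.4) containing 12.5 mM MgCl2 and 2 mM EDTA, Sf9-expressed receptor was exposed to test compound plus 1 nM [3H]MK-912 at 25 °C for 60 min. Specific binding, corrected using 10 μM WB-4101, was quantified by filtration and counting and expressed as percent inhibition.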
# [4] = biological target: T3, rat adrenergic α1B receptor (Rattus norvegicus, UniProt P15823); assay: Radioligand binding, adrenergic α1B ([3H]Prazosin); details: compound at 0.1 μM; [3H]Prazosin; repeat datapoints each shown; 0.1 µM
# T3 construct: rat adrenergic α1B receptor obtained from Wistar Rat liver; from tissue; host or cells: Wistar rat liver
# T3 sequence (P15823 1-515): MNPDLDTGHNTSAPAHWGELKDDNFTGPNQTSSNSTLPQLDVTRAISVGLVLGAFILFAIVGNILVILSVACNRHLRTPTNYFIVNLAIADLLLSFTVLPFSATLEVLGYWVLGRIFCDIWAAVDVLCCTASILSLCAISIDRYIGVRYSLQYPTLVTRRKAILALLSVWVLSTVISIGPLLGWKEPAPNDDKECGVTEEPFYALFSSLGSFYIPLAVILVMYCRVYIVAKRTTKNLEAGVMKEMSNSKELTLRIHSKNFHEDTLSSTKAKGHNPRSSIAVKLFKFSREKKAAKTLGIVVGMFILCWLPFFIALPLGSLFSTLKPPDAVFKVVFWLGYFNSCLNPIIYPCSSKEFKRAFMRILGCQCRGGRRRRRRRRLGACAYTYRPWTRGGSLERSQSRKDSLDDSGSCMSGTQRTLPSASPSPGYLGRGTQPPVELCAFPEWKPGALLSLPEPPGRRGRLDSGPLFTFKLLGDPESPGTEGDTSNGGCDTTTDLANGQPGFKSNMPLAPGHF
# Outline: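 Incubation ran 60 min at 25 °C in Tris-HCl buffer (50 mM, pH 7.4, 0.5 mM EDTA) with Wistar rat liver α1B receptor. 10 μM phentolamine set non-specific binding.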
# [5] = system: SH-SY5Y cells; assay: Cell death (LDH release) in hydrogen peroxide-treated SH-SY5Y cells; format: cell-based; details: LDH release normalized to vehicle (=100); hydrogen peroxide 300 μM, 24 h; compounds at 10 nM
# Protocol: (§1) SH-SY5Y cells cultured in DMEM/F12 media supplemented with 10% FBS were seeded in 96-well microplates at 150,000 cells/cm^2. After 24 h, cells were depleted from FBS and kept in culture for 24 h before the experiment. Cells were then treated with 4-Br-A23187 (2 μM), hydrogen peroxide (300 μM) or the mitochondrial toxin rotenone (25 μM) in the presence of vehicle or Compound of the Invention for 24 h. Cell death was determined by measurements of LDH release according to the Cytotoxicity Detection KitPlus (Roche, Mannheim, Germany). Cell viability was determined by measuring the capacity of cells to metabolize MTS tetrazolium (MTS) according to the Cytotoxicity Detection KitPlus (Roche, Mannheim, Germany) and MTS reduction is assessed by the CellTiter 96® AQueous One Solution Cell Proliferation assay (Promega Corporation, Madison, Wis., USA). Compounds were screened at 10 nM, using DMSO as vehicle. Assay results for the experiments with hydrogen peroxide are presented as the LDH release (cell death) of untreated cells (control), hydrogen peroxide-treated cells (vehicle), and co-incubation of hydrogen peroxide with Compounds of the Invention treated cells normalized to the vehicle (FIG. 17A). This assay assesses the ability of the test compounds to protect against cell death that is mediated by mitochondrial dysfunction. In the assay, the calcium ionophore 4-Br-A23187 is used to challenge the cells, causing calcium levels to rise in mitochondria, which leads to depolarization and cell death. Test compounds are assessed for their ability to prevent cell death in response to challenge with 4-Br-A23187.
# [6] = system: SH-SY5Y cells; assay: Cell viability (MTS reduction) in 4-Br-A23187-treated SH-SY5Y cells; format: cell-based; details: MTS reduction capacity; 4-Br-A23187 2 μM, 24 h; compounds at 10 nM
# Protocol: as §1, with “After” for “SH-SY5Y cells cultured in DMEM/F12 media supplemented with 10% FBS were seeded in 96-well microplates at 150,000 cells/cm^2. After”
# [7] = system: SH-SY5Y cells over-expressing α-syn; assay: Cell viability (MTS reduction) in SH-SY5Y cells over-expressing α-synuclein; format: cell-based; details: Homo sapiens, 336 h, α-syn over-expression (−dox), +dox control = 100, 14 days, read-out: Relative cell viability protection
# Protocol: Cell Culture. SH-SY5Y cells stably transfected with a doxycyline-inducible wild-type α-synuclein (α-syn) gene along with control SH-SY5Y cells over-expressing the β-galactosidase (β-gal) gene (a gift from L. Stefanis, Division of Basic Neurosciences, Biomedical Research Foundation of the Academy of Athens, Athens, Greece) are cultured as described by Vekrellis et al. (Vekrellis K, Xilouri M, Emmanouilidou E, Stefanis L. (2009). Inducible over-expression of α-syn in human neuronal cells leads to caspase-dependent non-apoptotic death. J Neurochem 109, 1348-1362). In accordance with this method, cells are cultured and maintained in RPMI 1640, 10% fetal bovine serum supplemented with 250 μg/mL G418 and 50 μg/mL Hygromycin B. Expression of α-syn is switched off in stock cultures with doxycycline (2 μg/mL). For experimental procedures, cells are plated at (4−8×10^4 cells/cm^2) and differentiated in absence of doxycycline and in the presence of 20 μM all-trans retinoic acid (RA) (Sigma, St Louis, Mo., USA).
# Viability Assay: Cells are cultured in 96-well plates. After 24 h, cells are treated with RA and Compounds of Invention at 0.1 and 10 nM in the absence of doxycyline. Culture medium with RA and drugs is fully replaced after 7 days. Cell viability is measured by the release of lactate dehydrogenase (LDH) from necrotic cells into the culture medium and by measuring the capacity of cells to metabolize MTS tetrazolium (MTS) after 14 days in culture. LDH leakage is assessed according to the Cytotoxicity Detection KitPlus (Roche, Mannheim, Germany) and MTS reduction is assessed by the CellTiter 96® AQueous One Solution Cell Proliferation assay (Promega Corporation, Madison, Wis., USA).
# Assay results for the experiments with α-syn over-expression are presented as the MTS reduction capacity (cell viability) of control cells (+dox), cells over-expressing α-syn (−dox), and cells over-expressing α-syn incubated with Compounds of the Invention at 0.1 nM (FIG. 18A) or 10 nM (FIG. 18B).
SMILES,Solubility [1],"Percentage inhibition of ligand binding, Adrenergic α2B (0.03 μM) [2]","Percentage inhibition of ligand binding, Adrenergic α2A (0.1 μM) [3]","Percentage inhibition of ligand binding, Adrenergic α1B (0.1 μM) [4]","LDH release (cell death), relative to vehicle [5]",Relative cell viability protection [6],viability at 0.0001 µM ([7]; compounds at 0.1 nM),viability at 0.01 µM ([7]; compounds at 10 nM)
"Cc1cnc2c(c1)c1c(n2CC(C)(O)c2ccc(F)cc2)CCN(C)C1 (single isomer, unassigned) [138a]",30 mg/mL,63%,−8%,61%,,,,
"Cc1cnc2c(c1)c1c(n2CC(C)(O)c2ccc(F)cc2)CCN(C)C1 (single isomer, unassigned) [138b]",30 mg/mL,25%,4%,22%,,,,
"Cc1ccc2c(c1)c1c(n2CCc2ccc(C)nc2)CCN(C)C1 [Dimebon (DMB), dimebon, reference compound]",,,,,91.15,0.3538,70.5%,85.7%
